Data as given in patent US5703130A, “Chalcone retinoids and methods of use of same” (priority 1996, dated 1997).

Assays:
[1] = test system: Human promyelocytic leukemia HL-60 cells; experiment: Cell differentiation of HL-60 cells by nitroblue tetrazolium (NBT) reduction; format: cell-based; conditions: 50% differentiation or effective concentration, read-out: NBT ED50
Experimental: Human promyelocytic leukemia HL-60 cells were cultured in RPMI-1640 medium supplemented by 10% heat-inactivated calf serum and 100 U/ml of penicillin plus 100 μg/ml of streptomycin. The flasks containing cells and medium were incubated in an incubator with 5% CO2 at 37° C. Log phase cells were seeded into the medium at a concentration of 1.2×10^5to 1.4×10^5 cells per ml and cultured in flasks containing 5 ml of medium. Each group consisted of three flasks. Different concentrations of chalcone-retinoids were added. At intervals following the addition of chalcone-retinoids to the cultures, a small portion of cells was removed and live cells were counted under a light microscope using a dye-exclusionmethod with trypan blue. Cell differentiation was judged in terms of morphology and nitroblue tetrazolium (NBT) reduction.
For a determination of NBT reducing activity, a portion of the chalcone-retinoid-treated cells was removed at intervals following treatment and centrifuged. After centrifugation, 0.5 ml of 0.1% NBT (containing 100 ng TPA) was added to each tube. The contents of the test tubes were then incubated for 1 hour at 37° C. Cell smears were prepared from the cell sediment and stained using the Wright-Giemsa technique. For each smear prepared, 200 cells were isolated for examination under a light microscope with an oil immersion lens. Cells stained with blue-black granules were considered NBT-positive cells. The 50% differentiation or effective concentration (ED50 or EC50) is shown in terms of molar (M) concentration of the […] tested.

cancer cells = experiment: MTT assay for inhibitory effect on cancer cells (monolayer culture); format: cell-based; conditions: 120 h, 5 day culture, 1200 tumor cells per well, cell line not named, read-out: MTT ED50
Experimental: For a monolayer culture to test for the inhibitory effect of chalcone retinoids on cancer cells, 0.5 ml of trypsin solution (0.3 gm/ml) was added to the flasks for digestion. Microtiter plates (96 well) were used for the cell culture and 200 μl of cell suspension (1200 tumor cells) were placed in each well and incubated at 37° C. for 24 hours. Following the addition of the test compound, the control and treated flasks were placed in a CO2 incubator for 5 day culture. For the MTT assay, 200 μl of MTT solution (5 mg in 10 ml of phosphate buffer) plus the medium were added and incubated for another 4 hours. Following incubation, the supernatant was discarded and 200 μl of DMSO was added to each well. With a mild agitation the OD values were determined by the MR 700 Elisa at 570 nm (reference wavelength was 450 nm). The ED50 of the compound and tumor cell survival rate [formula] as percent inhibition were calculated.

[2] = test system: human acute myeloid leukemia (AML), neuroblastoma, teratocarcinoma, melanoma, and rat rhabdomyosarcoma cells; conditions: Smith et al., J. Clin. Oncol. 10 (5):839-864 (1992); cited from earlier work
[3] = Preuss-Ueberschar et al., Drug Res. 34:1305-1313 (1984); cited from earlier work
melanoma cell = conditions: Jing et al. (1992); cited from earlier work

Compound	EC50 [1]	IC50 (cancer cells)	further results
CCOC(=O)c1ccc(NC(=O)c2ccc(OC(=O)c3cc(C(C)(C)C)c(O)c(C(C)(C)C)c3)cc2)cc1 [I-R, 4-(4-ethoxycarbonyl-phenylaminocarbonyl)phenyl 3,5-di-t-butyl-4-hydroxybenzoate]	> 10 µM	> 10 µM	
CC(C)(C)c1cc(C(=O)Oc2ccc(C(=O)Nc3ccc(C(=O)O)cc3)cc2)cc(C(C)(C)C)c1O [I-S, 4-(4-carboxy-phenylaminocarbonyl)phenyl 3,5-di-t-butyl-4-hydroxybenzoate]	> 10 µM	1.6 µM	
CC1=C(/C=C/C(C)=C/C=C/C(C)=C/C(=O)O)C(C)(C)CCC1 [all-trans-retinoic acid (RA), all-trans-retinoic acid]			induces cell differentiation [2]: induces cell differentiation
O=c1ccc2ccccc2o1 [coumarin]			teratogenicity [3]: not teratogenic
O=c1c(-c2ccc(O)cc2)coc2cc(O)ccc12 [diadzein]			inhibition of melanoma cell growth (melanoma cell): inhibits melanoma cell growth

More lines, main results first:

EC50 [1]	IC50 (cancer cells)	Compound	further results
> 1 µM	4 µM	CC(C)(C)c1cc(C(=O)Nc2ccc(C(=O)Nc3ccc(O)cc3)cc2)cc(C(C)(C)C)c1O [I-A, N-4-[4-(hydroxyphenylaminocarbonyl)phenyl]-3,5-di-t-butyl-4-hydroxybenzamide]	
> 10 µM	11 µM	CC(=O)Nc1ccc(OC(=O)c2ccc(NC(=O)c3cc(C(C)(C)C)c(O)c(C(C)(C)C)c3)cc2)cc1 [I-B, N-4-[4-(acetaminophenoxycarbonyl)phenyl]-3,5-di-t-butyl-4-hydroxybenzamide]	
1.2 µM	0.92 µM	COc1c(C(C)(C)C)cc(C(=O)Nc2ccc(C(=O)Oc3ccc(NC(C)=O)cc3)cc2)cc1C(C)(C)C [I-J, N-4-[4-(acetaminophenoxycarbonyl)phenyl]-3,5-di-t-butyl-4-methoxybenzamide]	
> 1 µM	2 µM	COc1c(C(C)(C)C)cc(C(=O)C=Cc2ccc(C(=O)Oc3ccc(NC(C)=O)cc3)cc2)cc1C(C)(C)C [I-N, 1-(3,5-di-t-butyl-4-methoxyphenyl)-3-[4-(4-acetaminophenoxycarbonyl)-phenyl]-2-propen-1-one]	
8 µM	6 µM	CC(=O)Nc1ccc(OC(=O)c2ccc(OC(=O)c3cc(C(C)(C)C)c(O)c(C(C)(C)C)c3)cc2)cc1 [I-Q, 4'-[(4-acetamino)phenoxycarbonylphenyl] 4-hydroxy-3,5-di-t-butyl-benzoate]	
